According to patent US10723699B2 (Hyundai Pharm Co., Ltd., priority 2015, dated 2020):
Where two headings read alike, the source gives them in different places.

Target: T1, G protein-coupled receptor 119 (GPR-119) (Mesocricetus auratus, UniProt A0A1U8CD06)
T1 construct: hamster-derived β-cells containing G protein-coupled receptor 119 (GPR-119), HIT-T15 cells; host or cells: HIT-T15 (hamster pancreatic β-cells)
T1 sequence (A0A1U8CD06 1-334): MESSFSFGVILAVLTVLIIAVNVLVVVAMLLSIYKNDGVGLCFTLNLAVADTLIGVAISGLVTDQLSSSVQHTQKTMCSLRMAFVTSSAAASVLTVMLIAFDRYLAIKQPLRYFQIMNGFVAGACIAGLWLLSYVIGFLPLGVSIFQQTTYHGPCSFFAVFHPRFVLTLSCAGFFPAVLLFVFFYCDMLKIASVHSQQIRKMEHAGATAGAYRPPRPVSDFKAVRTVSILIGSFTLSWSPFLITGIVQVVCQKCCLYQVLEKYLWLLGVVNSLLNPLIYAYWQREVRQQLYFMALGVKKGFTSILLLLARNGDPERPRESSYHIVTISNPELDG
Assay: cAMP activity in HIT-T15 cells (cAMP dynamic kit, FRET)
Assay type: cell-based, hamster
In short: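 Hamster HIT-T15 cells (60,000/well) were treated next day with compound at six concentrations, 0.0032–10 μM, for 1 h at 37° C. Cells were then lysed and cAMP measured by competitive HTRF immunoassay (D2-cAMP, cryptate anti-cAMP). Activity was derived as the change in FRET signal relative to DMSO.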

[1] = 1 hour at 37° C., six concentrations 0.0032 to 10 μM, read-out: EC50

Row | Structure (SMILES) | EC50 [1] [nM] | EC50 (Table 2, read-out: EC50 value) [nM]
1 | CCc1cnc(N2CCC(COc3ccc(C4=CCC(C(=O)N5CCOCC5)CC4)cc3C#N)CC2)nc1 (stereo not drawn) [Example 388, 2-((1-(5-ethylpyrimidin-2-yl)piperidin-4-yl)methoxy)-5-(4-(morpholine-4-carbonyl)cyclohex-1-enyl)benzonitrile] | 51 | –
2 | CCc1cnc(N2CCC(COc3ccc(C4=CCC(C(=O)N5CCSCC5)CC4)cc3C#N)CC2)nc1 (stereo not drawn) [Example 389, 2-((1-(5-ethylpyrimidin-2-yl)piperidin-4-yl)methoxy)-5-(4-(thiomorpholine-4-carbonyl)cyclohex-1-enyl)benzonitrile] | 68 | –
3 | CCc1cnc(N2CCC(COc3ccc(C4=CCC(C(=O)N5CCC(O)CC5)CC4)cc3C#N)CC2)nc1 (stereo not drawn) [Example 390, 2-((1-(5-ethylpyrimidin-2-yl)piperidin-4-yl)methoxy)-5-(4-(4-hydroxypiperidine-1-carbonyl)cyclohex-1-enyl)benzonitrile] | 70 | –
4 | CCc1cnc(N2CCC(COc3ccc(C4=CCC(C(=O)N5CCC(CO)CC5)CC4)cc3C#N)CC2)nc1 (stereo not drawn) [Example 391, 2-((1-(5-ethylpyrimidin-2-yl)piperidin-4-yl)methoxy)-5-(4-(4-(hydroxymethyl)piperidine-1-carbonyl)cyclohex-1-enyl)benzonitrile] | 27 | ≤ 50
5 | CC(C)(C)OC(=O)N1CCC(COc2ccc(C3=CCC(C(=O)N4CCCC4)CC3)cc2F)CC1 (stereo not drawn) [Example 392, tert-butyl 4-((2-fluoro-4-(4-(pyrrolidine-1-carbonyl)cyclohex-1-enyl)phenoxy)methyl)piperidine-1-carboxylate] | 10 | ≤ 50
6 | CCc1cnc(N2CCC(COc3ccc(C4=CCC(C(=O)N5CCCC5)CC4)cc3N)CC2)nc1 (stereo not drawn) [Example 393, (4-(3-amino-4-((1-(5-ethylpyrimidin-2-yl)piperidin-4-yl)methoxy)phenyl)cyclohex-3-enyl)(pyrrolidin-1-yl)methanone] | 130 | –
7 | CCc1cnc(N2CCC(COc3ccc(C4=CCC(C(=O)N5CCN(C6CC6)CC5)CC4)cc3)CC2)nc1 (stereo not drawn) [Example 395, (4-cyclopropylpiperazin-1-yl)(4-(4-((1-(5-ethylpyrimidin-2-yl)piperidin-4-yl)methoxy)phenyl)cyclohex-3-enyl)methanone] | 14 | –
8 | CC(C)c1noc(N2CCC(COc3ccc(C4=CCC(C(=O)N5CCN(C6CC6)CC5)CC4)cc3)CC2)n1 (stereo not drawn) [Example 397, (4-cyclopropylpiperazin-1-yl)(4-(4-((1-(3-isopropyl-1,2,4-oxadiazol-5-yl)piperidin-4-yl)methoxy)phenyl)cyclohex-3-enyl)methanone] | 9.9 | –
9 | CCc1cnc(N2CCC(COc3ccc(C4=CCC(C(=O)N5CCC(C#N)CC5)CC4)cc3C(F)(F)F)CC2)nc1 (stereo not drawn) [Example 398, 1-(4-(4-((1-(5-ethylpyrimidin-2-yl)piperidin-4-yl)methoxy)-3-(trifluoromethyl)phenyl)cyclohex-3-enecarbonyl)piperidine-4-carbonitrile] | 110 | –
10 | CCc1cnc(N2CCC(COc3ccc(C4=CCC(C(=O)N5CCOCC5)CC4)cc3C(F)(F)F)CC2)nc1 (stereo not drawn) [Example 400, (4-(4-((1-(5-ethylpyrimidin-2-yl)piperidin-4-yl)methoxy)-3-(trifluoromethyl)phenyl)cyclohex-3-enyl)(morpholino)methanone] | 140 | –
11 | CC(C)OC(=O)N1CCC(COc2ccc(C3=CCC(C(=O)N4CCCC4)CC3)cc2F)CC1 (stereo not drawn) [Example 401, isopropyl 4-((2-fluoro-4-(4-(pyrrolidine-1-carbonyl)cyclohex-1-enyl)phenoxy)methyl)piperidine-1-carboxylate] | 34 | ≤ 50
12 | O=C(Oc1ccccc1)N1CCC(COc2ccc(C3=CCC(C(=O)N4CCCC4)CC3)cc2F)CC1 (stereo not drawn) [Example 403, phenyl 4-((2-fluoro-4-(4-(pyrrolidine-1-carbonyl)cyclohex-1-enyl)phenoxy)methyl)piperidine-1-carboxylate] | 22 | ≤ 50
13 | O=C(Oc1ccc([N+](=O)[O-])cc1)N1CCC(COc2ccc(C3=CCC(C(=O)N4CCCC4)CC3)cc2F)CC1 (stereo not drawn) [Example 404, 4-nitrophenyl 4-((2-fluoro-4-(4-(pyrrolidine-1-carbonyl)cyclohex-1-enyl)phenoxy)methyl)piperidine-1-carboxylate] | 55 | –
14 | O=C(OC(C(F)(F)F)C(F)(F)F)N1CCC(COc2ccc(C3=CCC(C(=O)N4CCCC4)CC3)cc2F)CC1 (stereo not drawn) [Example 405, 1,1,1,3,3,3-hexafluoropropan-2-yl 4-((2-fluoro-4-(4-(pyrrolidine-1-carbonyl)cyclohex-1-enyl)phenoxy)methyl)piperidine-1-carboxylate] | 59 | –
15 | CC(OC(=O)N1CCC(COc2ccc(C3=CCC(C(=O)N4CCCC4)CC3)cc2F)CC1)C(F)(F)F (stereo not drawn) [Example 406, 1,1,1-trifluoropropan-2-yl 4-((2-fluoro-4-(4-(pyrrolidine-1-carbonyl)cyclohex-1-enyl)phenoxy)methyl)piperidine-1-carboxylate] | 36 | ≤ 50
16 | CC1(OC(=O)N2CCC(COc3ccc(C4=CCC(C(=O)N5CCCC5)CC4)cc3F)CC2)CC1 (stereo not drawn) [Example 408, 1-methylcyclopropyl 4-((2-fluoro-4-(4-(pyrrolidine-1-carbonyl)cyclohex-1-enyl)phenoxy)methyl)piperidine-1-carboxylate] | 25 | ≤ 50
17 | O=C(C1CC=C(c2ccc(OCC3CCN(C(=O)C4(C(F)(F)F)CCCC4)CC3)c(F)c2)CC1)N1CCCC1 (stereo not drawn) [Example 409, (4-(3-fluoro-4-((1-(1-(trifluoromethyl)cyclopentanecarbonyl)piperidin-4-yl)methoxy)phenyl)cyclohex-3-enyl)(pyrrolidin-1-yl)methanone] | 62 | –
18 | CON=C1CCN(C(=O)C2CC=C(c3ccc(OCC4CCN(c5nc(C(C)C)no5)CC4)cc3)CC2)CC1 (stereo not drawn) [Example 410, (4-(4-((1-(3-isopropyl-1,2,4-oxadiazol-5-yl)piperidin-4-yl)methoxy)phenyl)cyclohex-3-enyl)(4-(methoxyimino)piperidin-1-yl)methanone] | 14 | –
19 | CC(C)c1noc(N2CCC(COc3ccc(C4=CCC(C(=O)N5CCC(=NO)CC5)CC4)cc3F)CC2)n1 (stereo not drawn) [Example 411, (4-(3-fluoro-4-((1-(3-isopropyl-1,2,4-oxadiazol-5-yl)piperidin-4-yl)methoxy)phenyl)cyclohex-3-enyl)(4-(hydroxyimino)piperidin-1-yl)methanone] | 15 | ≤ 50
20 | CCCNC(=O)N1CCN(C(=O)C2CC=C(c3ccc(OCC4CCN(c5ncc(CC)cn5)CC4)cc3)CC2)CC1 (stereo not drawn) [Example 412, 4-(4-(4-((1-(5-ethylpyrimidin-2-yl)piperidin-4-yl)methoxy)phenyl)cyclohex-3-enecarbonyl)-N-propylpiperazine-1-carboxamide] | 37 | ≤ 50
21 | CCc1cnc(N2CCC(COc3ccc(C4=CCC(C(=O)N5CCN(C(=O)NC(C)C)CC5)CC4)cc3)CC2)nc1 (stereo not drawn) [Example 413, 4-(4-(4-((1-(5-ethylpyrimidin-2-yl)piperidin-4-yl)methoxy)phenyl)cyclohex-3-enecarbonyl)-N-isopropylpiperazine-1-carboxamide] | 25 | ≤ 50
22 | CCc1cnc(N2CCC(COc3ccc(C4=CCC(C(=O)N5CCN(C(=O)C=C(C)C)CC5)CC4)cc3)CC2)nc1 (stereo not drawn) [Example 414, 1-(4-(4-(4-((1-(5-ethylpyrimidin-2-yl)piperidin-4-yl)methoxy)phenyl)cyclohex-3-enecarbonyl)piperazin-1-yl)-3-methylbut-2-en-1-one] | 27 | ≤ 50
23 | CCc1cnc(N2CCC(COc3ccc(C4=CCC(C(=O)N5CCCCC5)CC4)cc3C)CC2)nc1 (stereo not drawn) [Example 415, (4-(4-((1-(5-ethylpyrimidin-2-yl)piperidin-4-yl)methoxy)-3-methylphenyl)cyclohex-3-enyl)(piperidin-1-yl)methanone] | 55 | –
24 | CCc1cnc(N2CCC(COc3ccc(C4=CCC(C(=O)N5CCCC5)CC4)cc3C)CC2)nc1 (stereo not drawn) [Example 416, (4-(4-((1-(5-ethylpyrimidin-2-yl)piperidin-4-yl)methoxy)-3-methylphenyl)cyclohex-3-enyl)(pyrrolidin-1-yl)methanone] | 75 | –
25 | CCc1cnc(N2CCC(COc3ccc(C4=CCC(C(=O)N5CCOCC5)CC4)cc3C)CC2)nc1 (stereo not drawn) [Example 417, (4-(4-((1-(5-ethylpyrimidin-2-yl)piperidin-4-yl)methoxy)-3-methylphenyl)cyclohex-3-enyl)(morpholino)methanone] | 50 | ≤ 50
26 | CCc1cnc(N2CCC(COc3ccc(C4=CCC(C(=O)N5CCSCC5)CC4)cc3C)CC2)nc1 (stereo not drawn) [Example 418, (4-(4-((1-(5-ethylpyrimidin-2-yl)piperidin-4-yl)methoxy)-3-methylphenyl)cyclohex-3-enyl)(thiomorpholino)methanone] | 35 | ≤ 50
27 | Cn1nnnc1N1CCC(COc2ccc(C3=CCC(C(=O)N4CCCC4)CC3)cc2F)CC1 (stereo not drawn) [Example 420, (4-(3-fluoro-4-((1-(1-methyl-1H-tetrazol-5-yl)piperidin-4-yl)methoxy)phenyl)cyclohex-3-enyl)(pyrrolidin-1-yl)methanone] | 110 | –
